Measurements: article PMC12073402, “A Selective MAP3K1 Inhibitor Facilitates Discovery of NPM1 as a Member of the Network” (Molecules, 2025)

Assays:
[1] = tested on: TNF-α–induced MAP3K1-IKKβ–mediated NF-κB transcription; assay: NF-κB luciferase reporter assay in HeLa cells; type: cell-based; details: 20, 10, 5 μM, TNF-α 20 ng/mL, 6 h
Description: MAP3K1 was previously shown to phosphorylate IKKβ [12] and regulate NF-κB signaling. Therefore, we validated the ability of 51-106 to inhibit MAP3K1 by probing the phosphorylation status of the known substrate, IKKβ, using an AlphaLISA assay. The pancreatic cancer cells (MiaPaCa2) were subjected to a 30-min pretreatment with varying concentrations of 51-106, followed by TNFα stimulation to induce IKKβ phosphorylation. Following a 15-min stimulation, the levels of phospho-IKKβ and total IKKβ were quantified. […] (Figure 3A). Next, we evaluated the efficacy of 51-106 in a cell-based reporter assay utilizing a HeLa cell line that specifically responds to TNFα induced expression of a luciferase reporter gene that is under the control of an NF-κB response element.
A suspension of HeLa-NFkB-Luc cells (Cat# SL-0001; Signosis; Santa Clara, CA, USA) (2 × 10^4/well) in 80 μL media was plated in white-walled, flat, clear-bottomed, sterile, 96-well tissue culture plates (Cat# 3610; Corning). The cells were allowed to adhere overnight in a humidified 5% CO2 incubator at 37 °C. […] Post stimulation addition (6 h), fluorescence (Ex 560, Em 590) was measured on the plate reader to assess cell viability. […] Luminescence (1000 ms) was measured on the plate reader set to the kinetic mode of acquisition for 15 min. The luminescence data were normalized to the AlamarBlue values. […]

[2] = tested on: NPM1 phosphorylation; assay: TMT phosphoproteomics of PANC-1 cells; type: cell-based; details: 10 μM, 2 h, versus DMSO
Protocol: Next, we wanted to assess the effects of 51-106 on the early phosphorylation events associated with transient MAP3K1 inhibition. To this end, we conducted global proteomic and phosphoproteomic analyses of PANC-1 cells treated with varying doses of 51-106 (10, 5, 2.5, 1.25, 0.625, and 0 μM) for 2 h using a tandem mass tag (TMT)-based multiplexing strategy (Figure 4). Across all conditions, a total of 7028 proteins and 22,843 phosphosites were quantified and successfully mapped to known protein sequences. Significance cutoffs of >0.32 or <−0.32 log2FC of 51-106 compared to DMSO and FDR < 0.05 were used to analyze differences in total and phosphorylated protein levels between treatment and control samples using RokaiXplorer (Supplementary Figure S3a).
PANC-1 (1 × 10^7) cells were seeded into T125 flasks (FB012939, Fisher Scientific) and allowed to attach overnight in a humidified 5% CO2 incubator at 37 °C. Drug working solutions were prepared from 10 mM DMSO stocks. 51-106 was added in 4 dilutions, in triplicates. […]
Global proteome and phosphopeptide-enriched fractions were analyzed on an Orbitrap Eclipse mass spectrometer using UltiMate 3000 RSLC nano system for online separation of peptides in trap and elute configuration (Thermo Scientific, San Jose, CA, USA). […] Survey MS scans were recorded in Orbitrap mass analyzer with 375 to 1500 m/z scan range at 120,000 resolution. […]

Cn1cc(-c2cnc3ccc(NC(=O)Nc4ccc(F)c(C(F)(F)F)c4)cc3n2)cn1 [51-106, 1-(4-Fluoro-3-(trifluoromethyl)phenyl)-3-(3-(1-methyl-1H-pyrazol-4-yl)quinoxalin-6-yl)urea]
TNF-α–induced NF-κB transcription (luciferase reporter) [1]: dose-dependent inhibition | decrease in NPM1 S227 phosphorylation [2]: 3.5 fold
